Assays:
Type in all cases: in vivo, human
[1] = system: subjects with alopecia areata; experiment: Open-label extension study (OLE), SALT score after dose reduction
Experimental: In an ongoing open-label extension study, subjects who were previously enrolled in a qualifying clinical study (including the study described in Example 1) and received either a total daily dose of 16 mg of Compound (I) (CTP-543, phosphate salt), a total daily dose of 24 mg of CTP-543, or placebo, and completed through the 24-week treatment period, were eligible to enroll in an open-label extension study (OLE) and continue to receive treatment with CTP-543 phosphate. A total of 152 subjects were enrolled in the OLE. In the OLE, subjects received daily treatment with CTP-543 at a dose of 8 mg BID or 12 mg BID (see FIG. 8). Dose adjustments were allowed at the investigator's discretion. One subject enrolled in the OLE, who received a daily dose of 24 mg QD of CTP-543 for approximately 9 months (i.e., the 24-week study period and the initial 3 months of the OLE), experienced hair growth at that dose (SALT score of zero, i.e., full regrowth of hair prior to dose reduction). The subject then had their dose reduced to a daily dose of 8 mg BID of CTP-543 phosphate. After approximately 7 months in the OLE receiving the lower daily dose of 8 mg BID of CTP-543, the subject continued to substantially maintain hair regrowth, with a SALT score of 7.92.

[2] = system: adult patients with moderate-to-severe alopecia areata; experiment: Phase 2a trial, safety: treatment emergent adverse events by patient
Experimental: (§1) A Phase 2a trial was conducted to evaluate the safety and efficacy of Compound (I) (CTP-543) in subjects with alopecia, with the primary efficacy analysis at week 24. The Phase 2a trial was a double-blind, randomized, placebo-controlled trial to evaluate the safety and efficacy of Compound (I) in adult patients with moderate-to-severe alopecia areata. Patients were sequentially randomized to receive one of three doses of Compound I as the phosphate salt (e.g., 10.5 mg of Compound (I) phosphate salt is equivalent 8 mg of Compound (I) free base). The doses of Compound (I) were 4, 8 (i.e., about 10.5 mg of Compound (I) phosphate salt), and 12 mg twice daily, and there was also a patient group receiving placebo. The primary outcome measure utilized the severity of alopecia tool (SALT) after 24 weeks of dosing.

[3] = system: adult patients with moderate-to-severe alopecia areata; experiment: Phase 2a double-blind, randomized, placebo-controlled trial, efficacy by severity of alopecia tool (SALT); details: for patients who achieved a ≥50% reduction in their overall SALT score: week 24, relative to baseline; for difference from placebo on all SALT measures / patients who achieved a ≥75% reduction in their overall SALT score / patients who achieved a ≥90% reduction in their overall SALT score: week 24; for significant changes in SALT score compared to placebo observed starting at: p<0.05
Text: The efficacy of treatment of hair loss disorders such as alopecia areata can be measured in a variety of ways, some of which are known in the art. For example, the “severity of alopecia tool”, otherwise known as SALT, is a validated assessment scale—developed by the National Alopecia Areata Foundation working committee—to evaluate the degree of hair loss. See, e.g., Olsen E A, Hordinsky M K, Price V H, et al. Alopecia areata investigational assessment guidelines—Part II. J Am Acad Dermatol 2004: 51: 440-447 (incorporated herein by reference). The SALT score is calculated for a patient by measuring the percentage of hair loss in each of the 4 areas of the scalp and adding the total to achieve a composite score. Hair regrowth is reflected by a decrease in the SALT score. For example, no hair on the scalp would have a SALT score of 100 while complete hair regrowth would be a SALT score of 0. In certain embodiments, methods of treatment as described herein can provide a SALT score improvement of at least 10 points after treatment (for example, from a SALT score of 100 prior to treatment to a SALT score of 90 after treatment). In further embodiments, methods of treatment as described herein can provide a SALT score improvement of at least 20 points, 30 points, 40 points, 50 points, 60 points, 70 points, 80 points, 90 points, or 100 points. In certain embodiments, methods of treatment as described herein can provide after treatment at least a 20% improvement from baseline in the patient's SALT score, or at least a 30% improvement from baseline in the patient's SALT score, or at least a 40% improvement from baseline in the patient's SALT score, or at least a 50% improvement from baseline in the patient's SALT score, or at least a 60% improvement from baseline in the patient's SALT score, or at least a 70% improvement from baseline in the patient's SALT score, or at least a 75% improvement from baseline in the patient's SALT score or at least a 80% improvement from baseline in the patient's SALT score, or at least a 90% improvement from baseline in the patient's SALT score.
as §1
Interim top line analysis for the 4 mg, 8 mg, and 12 mg cohorts is discussed below. The primary endpoint for the study was a 50% relative reduction in SALT between Week 24 and baseline.

For `[2H]C1([2H])C([C@@H](CC#N)n2cc(-c3ncnc4[nH]ccc34)cn2)C([2H])([2H])C([2H])([2H])C1([2H])[2H]` [CTP-543, (R)-3-(4-(7H-pyrrolo[2,3-d]pyrimidin-4-yl)-1H-pyrazol-1-yl)-3-(cyclopentyl-2,2,3,3,4,4,5,5-d8)propanenitrile], the SALT score ([1]; one subject, 24 mg QD for approximately 9 months, prior to dose reduction) was “zero”, the SALT score ([1]; same subject, after approximately 7 months at the reduced dose of 8 mg BID) was 7.92 and the “Acne, patients with event” value ([2]; 4 mg twice daily) was 4. The “Acne, percent of patients” value ([2]; 4 mg twice daily) was “(13.8%)”, the “Blood creatine phosphokinase increased, patients with event” value ([2]; 4 mg twice daily) was 3 and the “Blood creatine phosphokinase increased, percent of patients” value ([2]; 4 mg twice daily) was “(10.3%)”. For the same molecule, the “Cough, patients with event” value ([2]; 4 mg twice daily) was 4, the “Cough, percent of patients” value ([2]; 4 mg twice daily) was “(13.8%)” and the “Diarrhoea, patients with event” value ([2]; 4 mg twice daily) was 3. The “Diarrhoea, percent of patients” value ([2]; 4 mg twice daily) was “(10.3%)”, the “Folliculitis, patients with event” value ([2]; 4 mg twice daily) was 3 and the “Folliculitis, percent of patients” value ([2]; 4 mg twice daily) was “(10.3%)”. The “Headache, patients with event” value ([2]; 4 mg twice daily) was 5, the “Headache, percent of patients” value ([2]; 4 mg twice daily) was “(17.2%)” and the “LDL increase, patients with event” value ([2]; 4 mg twice daily) was 0. For the same molecule, the “Nasopharyngitis, patients with event” value ([2]; 4 mg twice daily) was 3, the “Nasopharyngitis, percent of patients” value ([2]; 4 mg twice daily) was “(10.3%)” and the “Nausea, patients with event” value ([2]; 4 mg twice daily) was 4. For the same molecule, the “Nausea, percent of patients” value ([2]; 4 mg twice daily) was “(13.8%)”, the “Oroharyngeal pain, patients with event” value ([2]; 4 mg twice daily) was 3 and the “Oroharyngeal pain, percent of patients” value ([2]; 4 mg twice daily) was “(10.3%)”. For the same molecule, the “Upper respiratory tract infection, patients with event” value ([2]; 4 mg twice daily) was 2, the “Upper respiratory tract infection, percent of patients” value ([2]; 4 mg twice daily) was “(6.9%)” and the “Acne, patients with event” value ([2]; 8 mg twice daily) was 4. For the same molecule, the “Acne, percent of patients” value ([2]; 8 mg twice daily) was “(10.5%)”, the “Blood creatine phosphokinase increased, patients with event” value ([2]; 8 mg twice daily) was 2 and the “Blood creatine phosphokinase increased, percent of patients” value ([2]; 8 mg twice daily) was “(5.3%)”. For the same molecule, the “Cough, patients with event” value ([2]; 8 mg twice daily) was 1, the “Cough, percent of patients” value ([2]; 8 mg twice daily) was “(2.6%)” and the “Diarrhoea, patients with event” value ([2]; 8 mg twice daily) was 1. The “Diarrhoea, percent of patients” value ([2]; 8 mg twice daily) was “(2.6%)”, the “Folliculitis, patients with event” value ([2]; 8 mg twice daily) was 2 and the “Folliculitis, percent of patients” value ([2]; 8 mg twice daily) was “(5.3%)”. For the same molecule, the “Headache, patients with event” value ([2]; 8 mg twice daily) was 10, the “Headache, percent of patients” value ([2]; 8 mg twice daily) was “(26.3%)” and the “LDL increase, patients with event” value ([2]; 8 mg twice daily) was 4. The “LDL increase, percent of patients” value ([2]; 8 mg twice daily) was “(10.5%)”, the “Nasopharyngitis, patients with event” value ([2]; 8 mg twice daily) was 3 and the “Nasopharyngitis, percent of patients” value ([2]; 8 mg twice daily) was “(7.9%)”. The “Nausea, patients with event” value ([2]; 8 mg twice daily) was 4, the “Nausea, percent of patients” value ([2]; 8 mg twice daily) was “(10.5%)” and the “Oroharyngeal pain, patients with event” value ([2]; 8 mg twice daily) was 2. For the same molecule, the “Oroharyngeal pain, percent of patients” value ([2]; 8 mg twice daily) was “(5.3%)”, the “Upper respiratory tract infection, patients with event” value ([2]; 8 mg twice daily) was 2 and the “Upper respiratory tract infection, percent of patients” value ([2]; 8 mg twice daily) was “(5.3%)”. For the same molecule, the “Acne, patients with event” value ([2]; 12 mg twice daily) was 6, the “Acne, percent of patients” value ([2]; 12 mg twice daily) was “(16.7%)” and the “Blood creatine phosphokinase increased, patients with event” value ([2]; 12 mg twice daily) was 1. The “Blood creatine phosphokinase increased, percent of patients” value ([2]; 12 mg twice daily) was “(2.8%)”, the “Cough, patients with event” value ([2]; 12 mg twice daily) was 2 and the “Cough, percent of patients” value ([2]; 12 mg twice daily) was “(5.6%)”. The “Diarrhoea, patients with event” value ([2]; 12 mg twice daily) was 0, the “Folliculitis, patients with event” value ([2]; 12 mg twice daily) was 1 and the “Folliculitis, percent of patients” value ([2]; 12 mg twice daily) was “(2.8%)”. The “Headache, patients with event” value ([2]; 12 mg twice daily) was 7, the “Headache, percent of patients” value ([2]; 12 mg twice daily) was “(19.4%)” and the “LDL increase, patients with event” value ([2]; 12 mg twice daily) was 0. The “Nasopharyngitis, patients with event” value ([2]; 12 mg twice daily) was 9, the “Nasopharyngitis, percent of patients” value ([2]; 12 mg twice daily) was “(25.0%)” and the “Nausea, patients with event” value ([2]; 12 mg twice daily) was 1. For the same molecule, the “Nausea, percent of patients” value ([2]; 12 mg twice daily) was “(2.8%)”, the “Oroharyngeal pain, patients with event” value ([2]; 12 mg twice daily) was 1 and the “Oroharyngeal pain, percent of patients” value ([2]; 12 mg twice daily) was “(2.8%)”. For the same molecule, the “Upper respiratory tract infection, patients with event” value ([2]; 12 mg twice daily) was 7, the “Upper respiratory tract infection, percent of patients” value ([2]; 12 mg twice daily) was “(19.4%)” and the serious adverse events ([2]; 4, 8 and 12 mg BID, 24 weeks) was “no serious adverse events”. For the same molecule, the tolerability of treatment ([2]; 4, 8 and 12 mg BID, 24 weeks) was “generally well-tolerated”, the “Grade 3/4 hematology events” value ([2]; preliminary analysis, total, distributed equally across the placebo, 4 mg and 8 mg groups) was 3 and the “separation from placebo on all measures” value ([3]; 4 mg BID) was “failed to separate from placebo on all measures”. The “patients who achieved a ≥50% reduction in their overall SALT score” value (from here on “patients who achieved a ≥50% reduction”) ([3]; 4 mg BID) was 21%, the “difference from placebo on all SALT measures” value ([3]; 8 mg BID) was “significantly different from placebo” and the “patients who achieved a ≥75% reduction in their overall SALT score” value ([3]; 8 mg BID) was 29%. The “patients who achieved a ≥90% reduction in their overall SALT score” value ([3]; 8 mg BID) was 16%, the “patients who achieved a ≥50% reduction” value ([3]; 8 mg BID) was 47% and the “significant changes in SALT score compared to placebo observed starting at” value ([3]; 8 mg cohort) was 12 weeks. The “12 mg BID dose compared to the 8 mg BID dose” value ([3]; 12 mg BID vs 8 mg BID) was “numerically superior and generally produced faster onset and greater effect”, the “difference from placebo on all SALT measures” value ([3]; 12 mg BID) was “significantly different from placebo” and the “patients who achieved a ≥75% reduction in their overall SALT score” value ([3]; 12 mg BID) was 42%. The “patients who achieved a ≥90% reduction in their overall SALT score” value ([3]; 12 mg BID) was 36%, the “patients who achieved a ≥50% reduction” value ([3]; 12 mg BID) was 58% and the “significant changes in SALT score compared to placebo observed starting at” value ([3]; 12 mg cohort) was 12 weeks.
